Test results from patent publication US10188629B2, “Prodrug of green tea epigallocatechin-3-gallate (pro-EGCG) for use in the treatment of endometriosis” (The Hong Kong Polytechnic University, priority 2012, dated 2019).

How the values were obtained:
[1] = tested on: microvessels in the endometriotic lesions; test: Angiogenesis of endometriotic lesions by Cellvizio, microCT and CD31/αSMA immunostaining; assay type: in vivo, mice; details: after 4 weeks; for functional capillary length, density and area in the lesions compared to saline group / total vessel area in the lesions compared to saline group / total vessel length in the lesions compared to saline group / lesion neovascularization: Cellvizio; for functional capillary length, density and area in the lesions compared to saline group / total vessel area in the lesions compared to saline group / total vessel length in the lesions compared to saline group: FITC-Dextran; for lesion neovascularization / vessel volume and density in the lesions compared to saline group: microCT; for lesion neovascularization: CD31 and αSMA staining; for CD31-positively and αSMA-negatively stained new microvessel numbers compared to saline group / CD31-positively and αSMA-positively stained old microvessel numbers compared to saline group: immunostaining; for vessel volume and density in the lesions compared to saline group: Microfil
Description: At the end of intervention, functional angiogenesis of the endometriotic lesions (n=8 per group) was monitored by measuring the flow of fluorescence dye in the new microvessels developed in the implants using a Cellvizio® LAB LSU-488 system with a ProFlex Microprobe S1500 (Mauna Kea Technologies, Paris) as previously described (Xu H, et al. Fertil Steril 2011; 96:1021-8.). A total of 10 mg/ml of FITC-Dextran was injected intravenously into each mouse prior to imaging. Total vessel length (μm) and area (μm^2) and functional capillary length (μm^−1) and area density were measured using Cellvizio® LAB Vessel Detection software, and averaged from 4 perpendicular regions of the lesions in replicates. At the same time, apoptotic cells in the lesions were captured by Cellvizio-LAB 488 with a ProFlex MiniO/100 microprobe using Cellvizio® LAB I/C Viewer software (Mauna Kea Technologies). A total of 10 μl of 10 μM YO-PRO®-1 iodide in DSMO was injected into the lesion area.
After live animal imaging, structural angiogenesis in the endometriotic lesions (n=4 per group) was further examined by detecting the Microfil in the new microvessels developed in the implants using a VivaCT 40 μCT system (Scanco Medical, Switzerland) as previously described (Sun M H, et al. J Orthop Res. 2012; 30:137-43.). The mice were sacrificed by cervical dislocation and where immediately perfused with 4% paraformaldehyde and Microfil MV-120 Blue. Three-dimensional microvessel architecture was constructed, and absolute and relative Microfil-filled microvessel volumes were determined using the built-in software.
Paraffin sections (n=4 per group) were prepared for standard hematoxylin and eosin (H&E) staining, angiogenesis immunostaining and TUNEL staining as previously described (Xu H, et al. Hum Reprod 2009; 24:608-18.). Immunohistochemistry staining of in situ angiogenesis was performed by the immunoperoxidase method using a MACH 3 HRP Polymer Kit (Biocare Medical, Concord), and counterstained using methyl green or blue solution.
Antibodies against mouse CD31 and alpha-smooth muscle actin (αSMA) (Abcam Inc., MA) were used to double fluorescence stain the microvessels developed in the endometriotic lesions, and CD34 (Abeam Inc.) was used to stain the microvessels in the ovaries and uterus. The samples without primary antibodies served as negative controls. The total number of positively stained new and old microvessels in the lesions was counted, respectively. The mean microvessel numbers and sizes were calculated from 5 separated sections from each animal within the treatment group and are presented as numbers per lesion and μm^2 per lesion, respectively.

[2] = tested on: vascular endothelial growth factor (VEGF); test: VEGF concentrations in plasma and lesions by ELISA; assay type: in vivo, mice
Excerpt: Pharmacokinetics of EGCG and pro-EGCG in the animals were studied by measuring the corresponding EGCG and pro-EGCG concentrations (EGCG in the EGCG group, pro-EGCG in the pro-EGCG group) in plasma during the intervention and also in lesions at the end of intervention. EGCG and pro-EGCG were quantified by analytical methods as previously described (Lam W H, et al. Bioorg Med Chem. 2004; 510:69-93; Chu K O, et al. J Chromat B 2004; 810:187-95; Chu K O, et al. Anal Chim Acta 2004; 510:69-76). Anti-oxidative and anti-angiogenesis capacities of the samples were also studied by measuring oxygen radical absorbance capacity (ORAC) using a modified phycoerythrin fluorescence decay assay as previously described (Wang C C, et al. Clin Chem 2004; 50:952-4), and vascular endothelial growth factor (VEGF) concentrations were measured using a commercial ELISA kit (Uscn Life Science Inc., TX) according to the manufacturer's manual. Blood samples (n=8 per group) were collected from the tail vein once per week, and plasma was prepared by immediate centrifugation. Implants without subcutaneous and muscle layers (n=4 per group) were removed from the abdominal wall, and the endometriotic lesions were frozen. All of the samples were kept in −80° C. prior to analysis.

[3] = General tolerability and body weight during the intervention; details: i.p. once per day, 4 weeks; EGCG, pro-EGCG 50 mg/kg, vitamin E 20 mg/kg
Description: Immediately after the transplantation, the mice were randomly assigned to receive either vehicle (n=8; sham control), vitamin E (n=8; anti-oxidant control, 20 mg/kg), EGCG (n=8; anti-angiogenesis control, 50 mg/kg, ≈1.5 mg/30 g) or pro-EGCG (n=8; 50 mg/kg).
Dulbecco's phosphate-buffered saline (PBS, Sigma) was used as solvent to dissolve the drugs. These doses were selected because their significant an angiogenic and anti-oxidative effects have been reported in mice (Sang S, et al. Chem Res Toxicol 2005; 18:1762-9; Villayandre B M, et al. Brain Research 2004; 1028, 148-55). The treatments were administered once per day via intraperitoneal injections for a consecutive 4-week period.

[4] = cited from earlier work
cancer cells = details: cited from earlier work
[5] = tested on: human prostate, breast, leukemic, and simian virus 40-transformed cells; details: cited from earlier work

For `O=C(O[C@@H]1Cc2c(O)cc(O)cc2O[C@@H]1c1cc(O)c(O)c(O)c1)c1cc(O)c(O)c(O)c1` [EGCG, (−)-epigallocatechin-3-gallate], the “functional capillary length, density and area in the lesions compared to saline group” value [1] was “significantly inhibited”, the “total vessel area in the lesions compared to saline group” value [1] was “significantly inhibited” and the “total vessel length in the lesions compared to saline group” value [1] was “significantly inhibited”. For the same compound, the lesion neovascularization [1] was “poorly developed”, the “CD31-positively and αSMA-negatively stained new microvessel numbers compared to saline group” value [1] was “significantly inhibited” and the “CD31-positively and αSMA-positively stained old microvessel numbers compared to saline group” value [1] was “significantly inhibited”. For the same compound, the “vessel volume and density in the lesions compared to saline group” value [1] was “significantly inhibited”, the “VEGF concentrations in endometriotic lesions compared to saline group” value ([2]; lesions after intervention) was “significantly decreased” and the “VEGF concentrations in plasma compared to saline group” value ([2]; plasma during intervention) was “significantly decreased”. For the same compound, the “signs of stress, intolerance or toxic responses to administration” value [3] was “No signs of stress, intolerance to anesthesia, surgery or implantation or any toxic responses”, the bioavailability [4] was “poor bioavailablity” and the “stability under physiological conditions” value ([4]; physiological conditions) was “notably unstable”.

With `CC(=O)Oc1cc(OC(C)=O)c2c(c1)O[C@H](c1cc(OC(C)=O)c(OC(C)=O)c(OC(C)=O)c1)[C@H](OC(=O)c1cc(OC(C)=O)c(OC(C)=O)c(OC(C)=O)c1)C2` [pro-EGCG, (−)-EGCG octaacetate] the “functional capillary length, density and area in the lesions compared to saline group” value [1] was “significantly inhibited”, the “total vessel area in the lesions compared to saline group” value [1] was “significantly inhibited” and the “total vessel length in the lesions compared to saline group” value [1] was “significantly inhibited”. For the same compound, the lesion neovascularization [1] was “poorly developed”, the “all of the microvessel parameters compared with EGCG group” value ([1]; 50 mg/kg i.p.) was “significantly lower than those in the EGCG group” and the “CD31-positively and αSMA-negatively stained new microvessel numbers compared to saline group” value [1] was “significantly inhibited”. The “CD31-positively and αSMA-positively stained old microvessel numbers compared to saline group” value [1] was “significantly inhibited”, the “vessel volume and density in the lesions compared to saline group” value [1] was “significantly inhibited” and the “VEGF concentrations in endometriotic lesions compared to saline group” value ([2]; lesions after intervention) was “significantly decreased”. The “VEGF concentrations in endometriotic lesions compared with EGCG group” value ([2]; lesions after intervention) was “significantly lower than those in the EGCG group”, the “VEGF concentrations in plasma compared to saline group” value ([2]; plasma during intervention) was “significantly decreased” and the “VEGF concentrations in plasma compared with EGCG group” value ([2]; plasma during intervention) was “significantly lower than those in the EGCG group”. For the same compound, the cell death induction (cancer cells) was “cell death induction”, the proteasome inhibition (cancer cells) was “exhibited proteasome inhibition” and the “potency in inhibition of proliferation and transforming activity and induction of apoptosis, compared with EGCG” value [5] was “much higher potency than EGCG”.
